Results on 14 molecules are retold here after ChEMBL document CHEMBL1201862, “PubChem BioAssay data set” (2004).

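Briefly, cells in 96-well plates were exposed to five compound concentrations for 48 h, and endpoints were estimated by linear interpolation. GI50 is the concentration that inhibits growth by half.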 Active and inactive are the calls of the source. Rule as the data show it: active = GI50 up to about 1.1 µM and inactive = higher.

Holding throughout (experiment): NCI-60 cell line screen, 48 h
The subject of assay [1] is IGROV-1.
Assay [2] deals with HCC 2998.
The test system of assay [3] is K562.
Assay [4] concerns Malme-3M.
For assay [5], the system named is HOP-62.
In assay [6] the test system is NCI-H23.
In assay [7] the test system is M14.
Assay [8] deals with SK-OV-3.
The subject of assay [9] is A498.
For assay [10], the system named is KM12.
Assay [11] relates to OVCAR-8.
Assay [12] has as its system HT-29.
The subject of assay [13] is MOLT-4.
Assay [14] deals with SR.
Assay [15] has as its system NCI-H460.
The test system of assay [16] is RXF 393.
Assay [17] has as its system NCI-H226.

Regarding `CC(C)N(C(=O)C12C3C4C1C1C2C3C41C(=O)C(C)(C)C)C(C)C` (stereo unspecified), the GI50 in assay [1] was > 100 µM (inactive); in [2] it was > 100 µM (inactive); in [3], 20.8 µM (inactive); in [4], > 100 µM (inactive); in assay [5], > 100 µM (inactive); in [6], > 100 µM (inactive). The GI50 in assay [7] was > 100 µM (inactive); in assay [8] it was > 100 µM (inactive); in [9] it was > 100 µM (inactive); in assay [10] it was > 100 µM (inactive); in [11], > 100 µM (inactive); in assay [12], 76.7 µM (inactive). Further, in assay [13], the GI50 was 26.7 µM (inactive).

As for `O=C(Nc1ccccc1C(=O)NC(=O)c1ccccc1NC(=O)c1ccccc1)c1ccccc1`, the GI50 in assay [1] is 1.86 µM (inactive); in assay [3], 4.83 µM (inactive); in assay [14], 2.42 µM (inactive); in assay [4], 3.34 µM (inactive); in assay [5] it was 12.4 µM (inactive); in assay [15] it was 7.71 µM (inactive). Further, the GI50 in assay [6] was 4.57 µM (inactive); in assay [16], 2.88 µM (inactive); in assay [9], 15.1 µM (inactive); in assay [10], 1.58 µM (inactive); in assay [11], 5.04 µM (inactive); in assay [12], 2.22 µM (inactive).

As to `COc1cc(Nc2cnc3cc(C(F)(F)F)ccc3n2)cc(OC)c1OC`, the GI50 in assay [2], in assay [14], in assay [4], in [5], in assay [15] and in assay [6] was > 100 µM (inactive) throughout. In addition, the GI50 in [17], in assay [16], in assay [8], in [11], in assay [12] and in assay [13] was > 100 µM (inactive) in each case.

As to `Cc1ccc(S(=O)(=O)NC(=O)C#CCOC2CCCCO2)cc1` (stereo unspecified), the GI50 in [2], in assay [3], in assay [14], in assay [4], in assay [15] and in assay [6] was > 100 µM (inactive) throughout. Further, the GI50 in assay [17], in assay [16], in assay [7], in assay [9], in assay [11] and in assay [12] was > 100 µM (inactive) throughout. The GI50 in assay [13] was > 100 µM (inactive).

`COc1ccccc1NC(=O)NS(=O)(=O)c1ccccc1`: the GI50 is > 100 µM (inactive) in assay [2]; > 100 µM (inactive) in assay [4]; 69.2 µM (inactive) in assay [5]; > 100 µM (inactive) in assay [15]; > 100 µM (inactive) in [6]; 87.1 µM (inactive) in [17]. In addition, the GI50 in assay [16] was 28.9 µM (inactive); in [7], > 100 µM (inactive); in assay [10], > 100 µM (inactive); in assay [11], > 100 µM (inactive); in [12], > 100 µM (inactive).

Consider `N#Cc1nc(Nc2ccc([N+](=O)[O-])cc2)sc1N`, for which the GI50 in assay [1] was 23.4 µM (inactive); in assay [2], 11.7 µM (inactive); in [3] it was 8.75 µM (inactive); in [14], 0.675 µM (active); in assay [4], 23.9 µM (inactive); in [5], 20.4 µM (inactive). Besides, the GI50 is 28.8 µM (inactive) in assay [15]; 4.44 µM (inactive) in assay [6]; 27.4 µM (inactive) in assay [17]; 22 µM (inactive) in assay [7]; 26.9 µM (inactive) in assay [8]; 26.2 µM (inactive) in assay [9]. Moreover, the GI50 is 21.9 µM (inactive) in assay [10], 19.4 µM (inactive) in assay [11], 33.5 µM (inactive) in assay [12] and 2.48 µM (inactive) in assay [13].

On to `C#CC(C)(C)Oc1cc(O)c2c(=O)c3ccccc3n(C)c2c1`, for which the GI50 in [1] is > 100 µM (inactive); in [2], 77.4 µM (inactive); in assay [3], > 100 µM (inactive); in [14] it was 17.3 µM (inactive); in assay [4] it was > 100 µM (inactive); in [5] it was 94 µM (inactive). Also, the GI50 in [15] is 24.5 µM (inactive); in assay [6], > 100 µM (inactive); in assay [17], > 100 µM (inactive); in assay [16] it was > 100 µM (inactive); in [7] it was > 100 µM (inactive); in assay [8], > 100 µM (inactive). Besides, the GI50 was > 100 µM (inactive) in [9], 35.8 µM (inactive) in [11], 34 µM (inactive) in assay [12] and > 100 µM (inactive) in assay [13].

In the case of `CCCCOC(=O)NC(=O)c1cn(CCCOC(=O)CCCCCCCCC(=O)OCCCn2cc(C(=O)NC(=O)OCCCC)c(=O)[nH]c2=O)c(=O)[nH]c1=O`, the GI50 in [1], in assay [2], in [3], in [14], in [4] and in assay [5] was > 100 µM (inactive) throughout. Besides, the GI50 in assay [15] is > 100 µM (inactive); in assay [6] it was > 100 µM (inactive); in assay [17], > 100 µM (inactive); in [16], 83 µM (inactive); in [7] it was > 100 µM (inactive); in [8], > 100 µM (inactive). In addition, the GI50 in [10], in assay [11], in assay [12] and in assay [13] was > 100 µM (inactive) each time.

As to `C=C1CC2OC(=O)C(=C)C2C(O)C2C(=C)CCC12` (stereo unspecified), the GI50 in assay [1] is 17.7 µM (inactive); in [2] it was 10.2 µM (inactive); in assay [3], 3.47 µM (inactive); in assay [14], 3.21 µM (inactive); in [4] it was 15 µM (inactive); in [15], 14.7 µM (inactive). For the same molecule, the GI50 in assay [6] was 12.6 µM (inactive); in [17], 20.4 µM (inactive); in assay [16], 4.05 µM (inactive); in [8], 12.4 µM (inactive); in assay [9], 0.31 µM (active); in assay [10], 10.8 µM (inactive). For the same molecule, the values for the GI50 in assay [11], in assay [12] and in [13] were 4.1 µM (inactive), 3.78 µM (inactive) and 2.75 µM (inactive), respectively.

In the case of `C=C1C(=O)OC2C/C(C)=C/CC/C(C)=C/CCC3(COC(C)=O)OC3CC12` (stereo unspecified), the GI50 in [1] was 16.7 µM (inactive); in assay [2], 8.85 µM (inactive); in assay [3] it was 5.68 µM (inactive); in assay [4], 12.9 µM (inactive); in [5] it was 18.7 µM (inactive); in [15], 12.7 µM (inactive). For the same molecule, the GI50 was 11.8 µM (inactive) in assay [6]; 2.51 µM (inactive) in [16]; 6.15 µM (inactive) in assay [7]; 13.7 µM (inactive) in assay [8]; 13.8 µM (inactive) in [9]; 13.7 µM (inactive) in [10]. In addition, the GI50 in assay [11] was 6.52 µM (inactive); in assay [12], 8.32 µM (inactive); in assay [13] it was 4.42 µM (inactive).

On to `O=C1C2C3C=C4c5ccccc5N(c5ccccc5)C4([C@@H]2C(=O)N1c1ccc(F)cc1)[C@H]1C(=O)N(c2ccc(F)cc2)C(=O)[C@@H]31` (stereo partly specified), for which the GI50 in assay [2], in assay [3], in [14], in assay [4], in [6] and in assay [17] was > 100 µM (inactive) each time. Besides, the GI50 in assay [16] was 81.3 µM (inactive); in [7] it was > 100 µM (inactive); in [10], > 100 µM (inactive); in [11], > 100 µM (inactive); in assay [13] it was > 100 µM (inactive).

As to `Cc1cc(Cl)ccc1NC(=O)CCCC(=O)C1C/C(=N/O)CC/C1=N\O` (stereo unspecified), the GI50 in [1], in assay [2], in assay [3], in assay [4], in assay [5] and in assay [15] was > 100 µM (inactive) in each case. The GI50 in assay [6], in [17], in assay [7], in assay [8], in assay [9] and in assay [10] was > 100 µM (inactive) throughout. Besides, the GI50 in assay [11], in assay [12] and in assay [13] was > 100 µM (inactive) throughout.

For `CC1=C(C(=O)NCc2ccccc2)C(/C=C/c2ccccc2)C(C(=O)NCc2ccccc2)=C(C)N1`, the GI50 in assay [1], in assay [2], in assay [3], in [14], in [4] and in assay [5] was > 100 µM (inactive) throughout. Besides, the GI50 in assay [15], in assay [6], in assay [17], in assay [16], in [7] and in [9] was > 100 µM (inactive) throughout. In addition, the GI50 in assay [10], in assay [11], in assay [12] and in assay [13] was > 100 µM (inactive) throughout.

In the case of `COc1ccc2c(c1)[n+]([O-])c(/C(C)=N/NC(=O)c1ccccc1O)c(C)[n+]2[O-]`, the GI50 in [1], in assay [2], in assay [3], in [4], in [5] and in [15] was > 100 µM (inactive) each time. The GI50 in assay [6], in [17], in assay [16], in assay [7], in assay [8] and in [10] was > 100 µM (inactive) each time. Further, the values for the GI50 in assay [11], in [12] and in assay [13] were 97.9 µM (inactive), > 100 µM (inactive) and > 100 µM (inactive), respectively.
